Columns and labels:
Details in all cases: Compound concentration 1000.0 nM
[1] = system: Tyrosine-protein kinase ABL1 (Homo sapiens), P00519 [F317I]
[2] = target: Cyclin-dependent kinase-like 2 (Homo sapiens) (UniProt Q92772)
[3] = system: T1, Receptor-type tyrosine-protein kinase FLT3 (Homo sapiens), P36888 [D835Y]
T1 sequence (whole entry): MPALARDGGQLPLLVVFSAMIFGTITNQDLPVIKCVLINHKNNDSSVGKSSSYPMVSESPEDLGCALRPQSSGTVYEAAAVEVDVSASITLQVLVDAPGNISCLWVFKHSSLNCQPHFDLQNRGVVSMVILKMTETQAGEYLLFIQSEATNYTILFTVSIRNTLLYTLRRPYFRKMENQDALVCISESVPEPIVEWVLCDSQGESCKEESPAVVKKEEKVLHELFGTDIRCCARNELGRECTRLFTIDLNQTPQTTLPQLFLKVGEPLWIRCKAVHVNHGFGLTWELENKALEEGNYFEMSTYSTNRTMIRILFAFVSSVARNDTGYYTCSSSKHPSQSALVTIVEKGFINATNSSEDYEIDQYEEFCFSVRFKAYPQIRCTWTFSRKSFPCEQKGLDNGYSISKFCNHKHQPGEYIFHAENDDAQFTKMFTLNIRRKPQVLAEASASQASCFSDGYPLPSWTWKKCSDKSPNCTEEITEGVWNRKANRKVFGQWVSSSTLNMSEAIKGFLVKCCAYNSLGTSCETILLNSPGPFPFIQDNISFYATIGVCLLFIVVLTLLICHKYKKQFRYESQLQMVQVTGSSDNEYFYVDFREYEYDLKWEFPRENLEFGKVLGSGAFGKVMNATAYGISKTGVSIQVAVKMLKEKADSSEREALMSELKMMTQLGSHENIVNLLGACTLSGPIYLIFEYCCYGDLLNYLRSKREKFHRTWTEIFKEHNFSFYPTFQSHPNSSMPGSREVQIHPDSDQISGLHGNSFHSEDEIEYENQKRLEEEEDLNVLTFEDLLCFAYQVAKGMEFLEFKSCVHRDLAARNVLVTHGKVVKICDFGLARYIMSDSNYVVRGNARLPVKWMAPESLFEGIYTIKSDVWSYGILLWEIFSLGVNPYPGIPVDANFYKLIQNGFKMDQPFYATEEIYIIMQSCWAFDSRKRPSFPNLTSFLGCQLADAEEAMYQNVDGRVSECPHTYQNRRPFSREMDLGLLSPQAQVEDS

[4] = target: Homeodomain-interacting protein kinase 3 (Homo sapiens) (UniProt Q9H422)
Homeodomain-interacting protein kinase 3 (Homo sapiens), sequence (Q9H422 whole entry, looked up): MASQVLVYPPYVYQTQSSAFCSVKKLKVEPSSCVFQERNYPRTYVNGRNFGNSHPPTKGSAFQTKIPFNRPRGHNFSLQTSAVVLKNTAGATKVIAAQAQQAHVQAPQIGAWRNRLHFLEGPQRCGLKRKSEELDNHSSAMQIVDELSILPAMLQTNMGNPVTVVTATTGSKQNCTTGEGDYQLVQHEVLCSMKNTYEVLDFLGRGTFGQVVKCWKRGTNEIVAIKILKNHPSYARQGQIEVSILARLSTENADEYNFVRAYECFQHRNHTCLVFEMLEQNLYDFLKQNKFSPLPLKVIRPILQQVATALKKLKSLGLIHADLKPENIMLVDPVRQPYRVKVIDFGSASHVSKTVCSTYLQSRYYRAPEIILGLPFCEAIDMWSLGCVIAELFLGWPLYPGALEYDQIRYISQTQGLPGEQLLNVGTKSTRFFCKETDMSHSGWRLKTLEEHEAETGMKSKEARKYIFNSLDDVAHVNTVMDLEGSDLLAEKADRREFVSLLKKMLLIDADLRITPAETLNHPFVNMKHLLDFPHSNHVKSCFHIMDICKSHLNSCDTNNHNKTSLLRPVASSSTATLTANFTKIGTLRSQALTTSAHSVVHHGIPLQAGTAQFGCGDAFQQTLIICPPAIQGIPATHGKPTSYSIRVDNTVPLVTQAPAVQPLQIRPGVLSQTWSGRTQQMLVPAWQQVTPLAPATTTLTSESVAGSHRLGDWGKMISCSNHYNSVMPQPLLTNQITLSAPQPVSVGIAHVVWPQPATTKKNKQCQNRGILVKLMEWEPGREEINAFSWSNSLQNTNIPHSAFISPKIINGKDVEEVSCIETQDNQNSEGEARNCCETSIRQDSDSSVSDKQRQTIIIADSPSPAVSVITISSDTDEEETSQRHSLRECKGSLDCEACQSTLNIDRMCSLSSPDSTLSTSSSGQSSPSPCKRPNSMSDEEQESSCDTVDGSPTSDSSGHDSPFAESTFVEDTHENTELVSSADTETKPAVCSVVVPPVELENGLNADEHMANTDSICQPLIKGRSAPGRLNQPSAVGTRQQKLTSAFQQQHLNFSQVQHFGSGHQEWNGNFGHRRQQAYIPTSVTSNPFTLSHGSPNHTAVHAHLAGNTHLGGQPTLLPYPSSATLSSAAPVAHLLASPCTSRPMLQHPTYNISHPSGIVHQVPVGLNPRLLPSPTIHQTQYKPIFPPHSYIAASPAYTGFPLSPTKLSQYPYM

[5] = system: Mast/stem cell growth factor receptor Kit (Homo sapiens), P10721 [V559D,T670I]
[6] = target: T2, Mitogen-activated protein kinase kinase kinase 2 (Homo sapiens) (UniProt Q9Y2U5)
T2 sequence (whole entry): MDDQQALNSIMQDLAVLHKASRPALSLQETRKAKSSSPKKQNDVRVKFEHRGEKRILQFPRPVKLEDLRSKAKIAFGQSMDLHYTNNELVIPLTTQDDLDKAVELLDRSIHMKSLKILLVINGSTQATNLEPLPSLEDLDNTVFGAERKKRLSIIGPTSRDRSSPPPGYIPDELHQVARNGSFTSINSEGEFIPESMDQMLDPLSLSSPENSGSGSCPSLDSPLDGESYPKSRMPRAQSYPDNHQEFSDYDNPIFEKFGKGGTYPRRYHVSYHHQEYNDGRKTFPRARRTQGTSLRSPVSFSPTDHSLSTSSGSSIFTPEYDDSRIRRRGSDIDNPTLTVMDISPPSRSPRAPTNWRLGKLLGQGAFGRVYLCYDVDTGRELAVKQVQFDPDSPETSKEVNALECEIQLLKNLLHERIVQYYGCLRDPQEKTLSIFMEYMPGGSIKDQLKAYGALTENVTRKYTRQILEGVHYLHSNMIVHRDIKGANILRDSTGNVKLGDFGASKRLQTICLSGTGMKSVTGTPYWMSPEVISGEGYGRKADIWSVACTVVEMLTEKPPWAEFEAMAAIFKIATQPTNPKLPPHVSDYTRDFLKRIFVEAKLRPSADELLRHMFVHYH

[7] = target: Serine/threonine-protein kinase PAK 1 (Homo sapiens) (UniProt Q13153)
Serine/threonine-protein kinase PAK 1 (Homo sapiens), sequence (Q13153 whole entry, canonical isoform): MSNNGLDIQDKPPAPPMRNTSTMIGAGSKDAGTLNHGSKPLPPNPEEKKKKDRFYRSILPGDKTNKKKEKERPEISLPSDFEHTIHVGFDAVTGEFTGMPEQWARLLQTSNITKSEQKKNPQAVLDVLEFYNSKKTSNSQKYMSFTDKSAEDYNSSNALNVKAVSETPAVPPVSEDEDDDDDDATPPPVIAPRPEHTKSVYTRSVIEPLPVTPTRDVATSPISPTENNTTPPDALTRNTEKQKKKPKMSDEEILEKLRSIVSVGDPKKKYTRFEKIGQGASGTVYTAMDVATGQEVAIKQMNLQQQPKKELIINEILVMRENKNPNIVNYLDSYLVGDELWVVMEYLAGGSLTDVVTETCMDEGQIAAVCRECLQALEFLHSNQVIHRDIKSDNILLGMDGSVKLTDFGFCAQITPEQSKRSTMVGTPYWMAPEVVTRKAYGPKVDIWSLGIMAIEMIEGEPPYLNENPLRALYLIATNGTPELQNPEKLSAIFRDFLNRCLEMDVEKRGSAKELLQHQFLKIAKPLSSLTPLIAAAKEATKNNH

[8] = system: Phosphatidylinositol 4,5-bisphosphate 3-kinase catalytic subunit alpha isoform (Homo sapiens), P42336 [C420R]
Phosphatidylinositol 4,5-bisphosphate 3-kinase catalytic subunit alpha isoform (Homo sapiens), P42336 [C420R], sequence (P42336 whole entry C420R, canonical isoform): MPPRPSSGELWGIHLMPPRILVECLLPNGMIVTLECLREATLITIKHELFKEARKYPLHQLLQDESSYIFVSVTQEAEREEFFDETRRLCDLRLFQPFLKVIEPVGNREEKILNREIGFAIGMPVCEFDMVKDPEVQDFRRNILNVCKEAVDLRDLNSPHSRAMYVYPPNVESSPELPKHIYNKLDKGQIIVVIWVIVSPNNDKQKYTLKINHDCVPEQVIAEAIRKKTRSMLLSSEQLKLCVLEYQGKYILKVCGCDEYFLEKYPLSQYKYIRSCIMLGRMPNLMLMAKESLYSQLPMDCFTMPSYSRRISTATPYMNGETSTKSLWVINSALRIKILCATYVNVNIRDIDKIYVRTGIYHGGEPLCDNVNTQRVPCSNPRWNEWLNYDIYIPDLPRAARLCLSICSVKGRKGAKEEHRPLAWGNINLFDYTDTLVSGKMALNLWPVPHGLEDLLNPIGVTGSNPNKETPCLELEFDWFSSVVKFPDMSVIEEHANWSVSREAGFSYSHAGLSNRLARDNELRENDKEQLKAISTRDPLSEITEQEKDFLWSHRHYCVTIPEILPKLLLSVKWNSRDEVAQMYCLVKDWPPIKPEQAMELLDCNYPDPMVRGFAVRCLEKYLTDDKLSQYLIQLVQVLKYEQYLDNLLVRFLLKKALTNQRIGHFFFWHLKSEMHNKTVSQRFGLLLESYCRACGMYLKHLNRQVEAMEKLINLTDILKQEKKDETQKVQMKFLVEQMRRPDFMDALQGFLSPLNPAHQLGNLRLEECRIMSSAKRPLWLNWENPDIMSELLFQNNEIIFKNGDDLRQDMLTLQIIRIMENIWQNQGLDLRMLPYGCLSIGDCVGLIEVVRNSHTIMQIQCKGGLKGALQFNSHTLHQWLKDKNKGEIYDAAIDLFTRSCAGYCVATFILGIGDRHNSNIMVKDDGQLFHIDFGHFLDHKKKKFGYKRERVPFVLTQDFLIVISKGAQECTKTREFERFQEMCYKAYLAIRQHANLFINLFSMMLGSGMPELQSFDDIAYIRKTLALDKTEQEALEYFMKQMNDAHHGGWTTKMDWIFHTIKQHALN

[9] = target: T3, cGMP-dependent protein kinase 2 (Homo sapiens) (UniProt Q13237)
T3 sequence (whole entry): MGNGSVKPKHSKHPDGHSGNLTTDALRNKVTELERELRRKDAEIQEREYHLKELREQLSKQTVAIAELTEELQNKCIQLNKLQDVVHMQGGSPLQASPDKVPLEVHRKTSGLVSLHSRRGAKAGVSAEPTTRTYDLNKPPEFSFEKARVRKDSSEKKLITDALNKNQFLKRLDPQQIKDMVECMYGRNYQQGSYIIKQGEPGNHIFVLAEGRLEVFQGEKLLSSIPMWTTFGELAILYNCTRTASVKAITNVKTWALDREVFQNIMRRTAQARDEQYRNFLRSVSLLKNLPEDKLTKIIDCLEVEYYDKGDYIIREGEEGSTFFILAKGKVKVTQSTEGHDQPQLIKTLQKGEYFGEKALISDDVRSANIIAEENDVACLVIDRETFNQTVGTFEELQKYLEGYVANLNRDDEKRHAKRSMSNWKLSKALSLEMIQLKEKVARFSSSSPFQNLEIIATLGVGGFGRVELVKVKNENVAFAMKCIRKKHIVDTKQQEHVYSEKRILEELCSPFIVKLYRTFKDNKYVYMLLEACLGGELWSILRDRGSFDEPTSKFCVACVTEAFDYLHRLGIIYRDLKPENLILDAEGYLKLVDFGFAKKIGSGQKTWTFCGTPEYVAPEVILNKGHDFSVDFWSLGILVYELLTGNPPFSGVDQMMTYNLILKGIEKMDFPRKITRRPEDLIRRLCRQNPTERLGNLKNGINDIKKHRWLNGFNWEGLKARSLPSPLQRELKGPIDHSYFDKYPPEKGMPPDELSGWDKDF

Measured: residual activity

Cyclin-dependent kinase-like 2 (Homo sapiens), sequence (Q92772 whole entry): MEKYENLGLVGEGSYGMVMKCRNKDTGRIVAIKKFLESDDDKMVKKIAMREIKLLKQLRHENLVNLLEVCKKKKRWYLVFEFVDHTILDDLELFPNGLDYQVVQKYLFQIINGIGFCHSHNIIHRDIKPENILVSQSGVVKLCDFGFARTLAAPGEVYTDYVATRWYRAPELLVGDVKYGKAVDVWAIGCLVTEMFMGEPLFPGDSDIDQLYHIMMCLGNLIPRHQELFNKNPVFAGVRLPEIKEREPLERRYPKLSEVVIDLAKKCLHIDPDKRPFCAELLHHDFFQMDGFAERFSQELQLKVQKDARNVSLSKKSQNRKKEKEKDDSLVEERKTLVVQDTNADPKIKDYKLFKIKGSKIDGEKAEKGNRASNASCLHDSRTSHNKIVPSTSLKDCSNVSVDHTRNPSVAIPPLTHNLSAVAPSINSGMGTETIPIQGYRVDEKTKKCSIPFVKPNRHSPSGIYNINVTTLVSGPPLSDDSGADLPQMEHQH
Tyrosine-protein kinase ABL1 (Homo sapiens), P00519 [F317I], sequence (P00519 whole entry F317I): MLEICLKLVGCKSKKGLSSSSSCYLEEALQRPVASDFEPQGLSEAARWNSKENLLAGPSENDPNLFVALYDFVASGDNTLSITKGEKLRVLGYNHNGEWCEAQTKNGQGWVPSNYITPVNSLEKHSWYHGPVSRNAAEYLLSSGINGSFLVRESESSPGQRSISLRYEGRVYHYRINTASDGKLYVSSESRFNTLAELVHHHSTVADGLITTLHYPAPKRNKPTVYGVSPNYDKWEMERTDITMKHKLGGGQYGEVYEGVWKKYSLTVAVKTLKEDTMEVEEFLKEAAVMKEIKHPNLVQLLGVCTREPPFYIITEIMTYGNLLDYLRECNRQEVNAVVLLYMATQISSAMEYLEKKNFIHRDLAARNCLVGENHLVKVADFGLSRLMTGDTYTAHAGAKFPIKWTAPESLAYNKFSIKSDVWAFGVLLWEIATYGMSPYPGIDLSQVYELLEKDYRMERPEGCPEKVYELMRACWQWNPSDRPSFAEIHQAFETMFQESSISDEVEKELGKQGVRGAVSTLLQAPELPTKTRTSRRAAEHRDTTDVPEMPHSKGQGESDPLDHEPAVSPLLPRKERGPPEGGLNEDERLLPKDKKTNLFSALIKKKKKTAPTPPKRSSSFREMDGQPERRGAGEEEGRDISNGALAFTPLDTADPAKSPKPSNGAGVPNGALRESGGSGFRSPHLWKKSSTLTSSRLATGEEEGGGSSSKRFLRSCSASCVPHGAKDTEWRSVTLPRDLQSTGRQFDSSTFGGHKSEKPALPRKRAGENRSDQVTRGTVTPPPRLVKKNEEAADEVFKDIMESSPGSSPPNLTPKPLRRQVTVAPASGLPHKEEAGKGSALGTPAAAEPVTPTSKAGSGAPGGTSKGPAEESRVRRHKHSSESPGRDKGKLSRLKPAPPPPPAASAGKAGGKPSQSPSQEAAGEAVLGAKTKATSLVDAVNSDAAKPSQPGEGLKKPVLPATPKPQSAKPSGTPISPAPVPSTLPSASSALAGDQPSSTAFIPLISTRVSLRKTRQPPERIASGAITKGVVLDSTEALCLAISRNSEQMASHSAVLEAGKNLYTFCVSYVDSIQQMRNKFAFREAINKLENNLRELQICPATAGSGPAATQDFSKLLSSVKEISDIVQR

CN(C)C(=O)Cn1cc(-c2nc(C3(c4ccc(-c5cnc(N)nc5)cc4)CC3)no2)cn1 [BI 0153]
inactive: [1] 90% | [2] 100% | [3] 100% | [4] 71% | [5] 100% | [6] 93% | [7] 100% | [8] 95% | [9] 100%

CN(C)C(=O)Cn1cc(-c2nc([C@@](C)(c3ccc(-c4cnc(N)nc4)cc3)C3CC3)no2)cn1 [BI 665915]
inactive: [1] 100% | [2] 100% | [3] 85% | [4] 97% | [5] 81% | [6] 94% | [7] 100% | [8] 73% | [9] 85%
